This test concerns Propionibacterium acnes. In words: Antimicrobial efficacy in analogy to challenge test NF EN ISO11930, protection against acne. It is filed as cell-based. To be noted: 24 h; for Log reduction: Propionibacterium acnes; for Propionibacterium acnes colony count: 22° C., initial contamination 310000 cfu/ml.

Procedure: The antimicrobial efficacy is assessed in analogy to the regulatory challenge test method (NF EN ISO11930). Thus, solutions of the respective active(s) in ethanol are prepared and further dissolved in physiological serum with 0.85 wt.-% NaCl in the concentrations as outlined in table 1 under sterile conditions. The samples were solubilized in physiological serum supplemented with 1 wt.-% ethanol. A control was prepared under sterile condition based on a serum with 0.85 wt.-% NaCl and 1 wt.-% ethanol (C1). […] The wells are contaminated resulting in the initial contamination as outlined in table 1. After the contamination, each well was thoroughly mixed to ensure a homogeneous distribution of bacteria. Then each plate was incubated at 22° C. for 24 h. The counting of the (remaining) population is carried out 24 h after contamination.

For the compound `CCCCCCCC(=O)OCC(O)CO` (centres unmarked) [glyceryl caprylate, Glyceryl caprylate], where the note is “single active at 0.2 wt.-%”, the Log reduction is 3 and the “Propionibacterium acnes colony count” value is given as 260 cfu/ml. Moreover, for the setting “single active at 0.3 wt.-%”, the Log reduction stood at 4.5 and the “Propionibacterium acnes colony count” value amounted to 10 cfu/ml.
For `O=C(CO)[C@H](O)CO` (racemic) [erythrulose], for the setting “single active at 0.1 wt.-%”, the Log reduction is on record as 2 and the “Propionibacterium acnes colony count” value is 3300 cfu/ml. Besides, for the setting “single active at 0.3 wt.-%”, the Log reduction came to 3.5 and the “Propionibacterium acnes colony count” value came out at 100 cfu/ml.

The values are drawn from patent publication US11324680B2, “Topical compositions” (priority 2017, dated 2022).
